# Experimental data reported in patent publication US8178675B2, “Compounds for the treatment of metabolic disorders” (Wellstat Therapeutics Corporation, priority 2005, dated 2012).
# Columns and labels:
# db/db mice = test: Antidiabetic effects in db/db mouse model of type II diabetes (serum chemistry after 2 weeks daily oral dosing); type: in vivo
# From the text: db/db mice have a defect in leptin signaling, leading to hyperphagia, obesity and diabetes. Moreover, unlike ob/ob mice on a C57BL/6J background, db/db mice on a C57BLKS background undergo failure of their insulin-producing pancreatic islet cells, resulting in progression from hyperinsulinemia (associated with peripheral insulin resistance) to hypoinsulinemic diabetes.
# Male obese (db/db homozygote) C57BL/Ksola mice approximately 8 weeks of age, were obtained from Jackson Labs (Bar Harbor, Me.) and randomly assigned into groups of 5-7 animals such that the body weights (40-45 g) and serum glucose levels (≧300 mg/dl in fed state) were similar between groups; male lean (db/+ heterozygote) mice served as cohort controls. A minimum of 7 days was allowed for adaptation after arrival. All animals were maintained under controlled temperature (23° C.), relative humidity (50±5%) and light (7:00-19:00), and allowed free access to standard chow (Formulab Diet 5008, Quality Lab Products, Elkridge, Md.) and water.
# Mice received daily oral doses of vehicle or Compound CW for 2 weeks. At the end of the treatment period 100 μl of venous blood was withdrawn in a heparinized capillary tube from the retro-orbital sinus for serum chemistry analysis. Mice were in the fed state at the time of blood sampling.
# human PPARα = molecular target: T1, human PPARα (Homo sapiens, UniProt Q07869); test: Human PPARα transactivation assay (Gal4/PPAR-LBD, luciferase reporter); type: cell-based
# T1 construct: expressed in transfected cells
# T1 sequence (Q07869 167-468): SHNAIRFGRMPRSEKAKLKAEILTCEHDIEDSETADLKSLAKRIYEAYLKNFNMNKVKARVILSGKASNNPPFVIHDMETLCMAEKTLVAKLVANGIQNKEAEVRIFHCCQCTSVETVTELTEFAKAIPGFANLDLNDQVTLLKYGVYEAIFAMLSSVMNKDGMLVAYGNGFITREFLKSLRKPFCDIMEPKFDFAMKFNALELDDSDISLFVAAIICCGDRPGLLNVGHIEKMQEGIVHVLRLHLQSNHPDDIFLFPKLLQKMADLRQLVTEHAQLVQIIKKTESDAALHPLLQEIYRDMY
# From the text: In order to examine the activity of Compound CW on PPARα, a transactivation assay was used. Transactivation assays take advantage of the modular domain structure of nuclear receptors. A fusion protein was made between the human or mouse PPAR ligand binding domain (PPAR-LBD) and the yeast Gal4 DNA binding domain (“activator plasmid”). The reporter gene construct consisted of the Gal4 DNA binding element in cis with a luciferase reporter. When an agonist binds the Gal4/PPAR-LBD, the fusion protein binds the Gal4 DNA binding element on the reporter gene resulting in transcription of the firefly luciferase gene. Luciferase oxidizes the substrate luciferin in an ATP-dependent reaction; the amount of light given off is a direct measure of the level of the enzyme and, consequently, of the activity of the ligand binding the PPAR-LBD.
# The activator expressing plasmids contained a yeast GAL4 DNA-binding domain fused to the human PPARα ligand binding and hinge domains (a.a. 167-468). The reporter plasmid used was pFRLuc, which has the firefly luciferase gene under the control of a GAL4 UAS containing promoter (Stratagene (La Jolla, Calif.)).
# One day prior to transfection, cells were seeded in 24-well plates at a density of 5×10^4-2×10^5 cells/well, depending upon the cell type. Cells were transfected using Lipofectamine 2000 reagent (Invitrogen (Calsbad, Calif.)). […]
# [1] = after 2 weeks of daily oral dosing
Compound,"Glucose (serum glucose) (db/db mice; 100 mg/kg daily oral, 2 weeks, fed state, vehicle control 735 ± 66)",Effect on blood glucose (db/db mice; [1]),Effect on serum triglycerides (db/db mice; [1]),"Triglycerides ± SEM (serum triglycerides) (db/db mice; daily oral dosing 2 weeks, fed state, vehicle 221 ± 62)","Activity on human PPARα (type of agonism) (human PPARα; Gal4/human PPARα-LBD luciferase transactivation, 24 hours treatment, FIG. 1)","Maximal activity in transactivation assay (human PPARα; positive control, same experiment)"
"Cc1cccc(C)c1COc1cccc(C(C)C(=O)O)c1 (racemic) [Compound CW, 2-(3-(2,6-Dimethylbenzyloxy)-phenyl)-2-(R,S)-methylacetic acid]",171 ± 66 mg/dL,significant reduction,reduced,109 ± 13 mg/dL,partial agonist,
"Cc1cccc(Nc2cc(Cl)nc(SCC(=O)O)n2)c1C [Wy-14,643, reference compound]",,,,,,"~40,000 RLU"
